Key:
MBP-dC10α [1] = test: Time-dependent fluorescence increase for kinetic studies with MBP-dC10α; assay type: biochemical
Method: 4. Time-Dependent Fluorescence Increase for Kinetic Studies.
Protein labelling kinetics were studied by following the time-dependent fluorescence increase at 37° C. using a Synergy H4 Hybrid Multi-Mode Microplate Reader with excitation and emission monochromators set at a 9-nm bandpass. The reaction was prepared in 50 mM HEPES buffer (pH 7.4) with 5% DMSO. Solutions of MBP-dC10α were prepared in a 96-well plate and labelling reagent YC23, YC28 or YC29 in DMSO was added immediately before recording. The final concentrations of YC23, YC28, YC29 and of MBP-dC10α were all 25 μM in 50 mM HEPES buffer (pH 7.4) with 5% DMSO. Samples were excited at 495 nm (YC23), 540 nm (YC28) or 580 nm (YC29) and fluorescence intensity was followed at 525 nm (YC23), 590 nm (YC28) or 630 nm (YC29) as a function of time.

[2] = test system: histone-H2B-dC10α in HEK293T cells; test: Cellular labelling with confocal fluorescence microscopy; assay type: cell-based, Human; details: for fluorescence in cells transfected with histone-H2B-dC10α / fluorescence in negative-control cells (pcDNA / mock DNA): HEK293T, 10 μM fluorogen; for fluorescence in cells transfected with histone-H2B-dC10α: 30 min (YC23) or 45 min (YC29); for fluorescence in negative-control cells (pcDNA / mock DNA): same conditions
Method: HEK 293T cells were plated into 60-mm dishes and grown in MEM supplemented with 10% FBS, 100 units/mL of penicillin and 100 μg/mL of streptomycin for 16 h before transfection. Cells were transiently transfected with histone H2B-dC10α or pcDNA3.1 (mock) using lipofectamine 2000 following the manufacturer's instructions. […] Cells were observed and imaged on a Nikon confocal microscope with a 25× objective. Images were taken and analyzed with NIS-Elements software.

MBP-dC10α [3] = test: Fluorescence enhancement of fluorogen after labelling of test protein MBP-dC10α; assay type: biochemical; details: for fluorescence enhancement after reaction with MBP-dC10α: 25 μM fluorogen + 25 μM MBP-dC10α, overnight at 37° C., ratio of intensity at emission maximum; for background (latent) fluorescence of the unreacted fluorogen: 25 μM fluorogen without MBP-dC10α, 50 mM HEPES pH 7.4, 5% DMSO
Method: 3. Determination of Fluorescence Properties of Fluorogens, Fluorescence Changes after Labelling of Target Protein, Selectivity Over Other Thiols, and Fluorescence Enhancement Ratios.
(§1) Emission spectra and fluorescence intensity measurements were recorded at 37° C. with a Synergy H4 Hybrid Multi-Mode Microplate Reader with excitation and emission monochromators set at 9 nm bandpass. Concentrations of 2.5, 5, 12.5, 20, and 25 μM of MBP-dC10α were reacted with 25 μM YC23. The mixture of 25 μM solution of YC23 and 2.5, 5, 12.5 20, or 25 μM MBP-dC10α in 50 mM HEPES buffer (pH 7.4) with 5% DMSO was incubated at 37° C. in the dark for overnight after which the fluorescence emission spectrum was recorded (λex=480 nm). The emission spectra of YC23 in the same solution without MBP-dC10α were also recorded. The ratio of fluorescence intensity at maximum emission gave the fluorescence enhancement ratio. Selectivity tests were done with same protocol but with different concentrations of thiols. The mixture of 25 μM solution of YC28 or YC29 and 25 μM MBP-dC10α in 50 mM HEPES buffer (pH 7.4) with 5% DMSO was incubated at 37° C. in the dark for overnight after which the fluorescence emission spectrum was recorded. The emission spectra of YC28 or YC29 in the same solution without MBP-dC10α were also recorded. The ratio of fluorescence intensity at maximum emission gave the fluorescence enhancement ratio. λex for YC28 is 540 nm and λex for YC29 is 580 nm. Excitation and emission spectra were obtained for 25 μM of MBP-dC10α labelled with one equivalent of YC23 (FIG. 10), YC28 (FIG. 11a) or YC29 (FIG. 11b).

[4] = Time-dependent fluorescence increase with excess glutathione; assay type: biochemical
MBP-dC10α [5] = test: Excitation and emission spectra of fluorogen-labelled MBP-dC10α; assay type: physicochemical; details: 25 μM MBP-dC10α labelled with one equivalent of fluorogen
Method: as §1

MBP-dC10α [6] = test: Labelling of MBP-dC10α, purified and in bacterial lysate, analysed by SDS-PAGE after heat denaturation; assay type: biochemical, Escherichia coli
Method: 10% SDS-PAGE gels developed by (A) fluorescence (λex=491 nm, λem=508 nm) and (B) Coomassie staining are shown. Lane 1: molecular weight markers. Lanes 2-3: Purified MBP-[…]α, concentrated to 50 μM and (lane 3) labelled with 50 μM YC23, prior to 10-fold dilution and loading. Lanes 4-6: Soluble lysate of bacteria expressing MBP-[…]α, treated with 10, 50, or 100 μM YC23 respectively and 0.5 mM TCEP overnight, prior to loading. The thiol addition reaction of a maleimide group typically results in the formation of robust covalent bonds, which should be stable under conditions in which the labelled protein may itself undergo denaturation. To test this hypothesis, we expressed MBP-[…]α in Escherichia coli and used YC23 to label the test protein in bacterial lysate as well as the purified test protein. These samples were then heated to 95° C. for 15 min, prior to analysis by SDS-PAGE. […] Furthermore, as shown in lanes 4-6, as little as 10 μM of YC23 was sufficient to label the test protein, in the complex biological mixture of cell lysate.

[7] = Selectivity over other thiols, overnight incubation; assay type: biochemical; details: 25 μM YC23 overnight; 250 μM Cys and Hcy, 1 mM GSH vs 25 μM MBP-dC10α
Method: The selectivity of fluorogen YC23 was tested by incubating it overnight in the presence of MBP-dC10α or other intracellular thiols.
as §1, with “Excitation and emission spectra were obtained for 25 μM of MBP-dC10α labelled with one equivalent of YC23 (FIG. 10), YC28 (FIG. 11a) or YC29 (FIG. 11b).” left out

HEK293T cells = test: MTT assay cytotoxicity; assay type: cell-based, Human; details: up to 100 μM, 20 hours
Method: 3-(4,5-Dimethylthiazol-2-yl)-2,5-diphenyl tetrazolium bromide (MTT) is a yellow tetrazolium salt and can be reduced to formazan crystals, which are insoluble in aqueous solutions, by active mitochondria in living cells. The resulting intracellular purple formazan can be dissolved in Triton X100, and therefore quantified by measuring absorption of the solution.
Cells were seeded in a 96-well plate and incubated with 100 μL of culture medium with different amounts of the fluorogen YCx for 20 h. No fluorogen was added to the positive control and no cells were plated in the negative control. Portions of 25 μL of MTT solution (5 mg in 1 mL of Hanks' balanced salt solution) were added to the wells and the cells were further incubated at 37° C. for 4 h. Solubilization solutions (100 μL) were then added and incubated in 96-well plates at room temperature in the dark overnight. The absorption of each well was measured using a plate reader at a wavelength of 570 nm with 690 nm as a reference. Cell viability was calculated according to the following equation: Cell viability=(Awith fluorogen−Anegative control)/(Apositive control−Anegative control)×100%

SMILES | reaction with MBP-dC10α test protein (time-dependent fluorescence) (MBP-dC10α [1]; 25 μM fluorogen, 25 μM MBP-dC10α) | localisation of fluorescence in transfected cells ([2]; HEK293T expressing histone H2B-dC10α, 10 μM, 45 min) | fluorescence in cells transfected with histone-H2B-dC10α [2] | fluorescence in negative-control cells (pcDNA / mock DNA) [2] | fluorescence enhancement after reaction with MBP-dC10α (MBP-dC10α [3]) | background (latent) fluorescence of the unreacted fluorogen (MBP-dC10α [3]) | reaction with GSH (time-dependent fluorescence) ([4]; 5 mM GSH) | stability and selectivity of the fluorogen ([4]; in presence of GSH vs MBP-dC10α) | emission maximum of labelled MBP-dC10α (MBP-dC10α [5]) [nm] | time required to approach maximum fluorescence (MBP-dC10α [1]; 25 μM fluorogen + 25 μM MBP-dC10α, 37° C.) | fluorescence increase after 15 min (MBP-dC10α [1]; 25 μM fluorogen + 25 μM MBP-dC10α, 37° C., 15 min) [fold] | dependence of fluorescence increase on MBP-dC10α concentration (MBP-dC10α [3]; 25 μM YC23, 2.5-25 μM MBP-dC10α) | fluorescence of labelled purified test protein under denaturing conditions (MBP-dC10α [6]; 95° C. for 15 min, then SDS-PAGE) | concentration sufficient to label the test protein in cell lysate (MBP-dC10α [6]; soluble bacterial lysate, 0.5 mM TCEP, overnight) [µM] | fluorescence after incubation with other thiols relative to MBP-dC10α [7] [%] | effect on cell viability (HEK293T cells) | excitation maximum of labelled MBP-dC10α (MBP-dC10α [5]) [nm] | kinetic selectivity for MBP-dC10α relative to GSH ([4]; 25 μM MBP vs 5 mM GSH)
COC1=CC(=O)N(c2cc(Nc3ccc4n3[B-](F)(F)[N+]3=C(N(C)c5ccccc5)C=CC3=C4c3ccccc3)cc(N3C(=O)C=C(OC)C3=O)c2)C1=O [YC29, 7-((3,5-bis(3-methoxy-2,5-dioxo-2,5-dihydro-1H-pyrrol-1-yl)phenyl)amino)-5,5-difluoro-3-(methyl(phenyl)amino)-10-phenyl-5H-dipyrrolo[1,2-c:2′,1′-f][1,3,2]diazaborinin-4-ium-5-uide] | reacted readily | localized in the nucleus | Intense red fluorescence | no red fluorescence was detected | 308 fold | efficiently quenched | did not show any detectable reaction | excellent stability and selectivity | 630 |  |  |  |  |  |  |  |  | 
COC1=CC(=O)N(c2ccc(C3=C4C(C)=CC(C)=[N+]4[B-](F)(F)n4c(C)cc(C)c43)c(N3C(=O)C=C(OC)C3=O)c2)C1=O [YC23, 10-(2,4-Bis(3-methoxy-2,5-dioxo-2,5-dihydro-1H-pyrrol-1-yl)phenyl)-5,5-difluoro-1,3,7,9-tetramethyl-5H-dipyrrolo[1,2-c:2′,1′-f][1,3,2]diazaborinin-4-ium-5-uide] |  |  | strongly green fluorescent | negligible fluorescence | ca. 800 fold | negligible background fluorescence |  |  | 525 | more than 4 hours | 10 | concentration-dependent | maintained its fluorescence | ≤ 10 | < 10 | negligible effect on cell viability | 510 | 
COC(=O)CSC1=[N+]2C(=C(c3ccccc3)c3ccc(Nc4cc(N5C(=O)C=C(OC)C5=O)cc(N5C(=O)C=C(OC)C5=O)c4)n3[B-]2(F)F)C=C1 [YC28, 7-((3,5-bis(3-methoxy-2,5-dioxo-2,5-dihydro-1H-pyrrol-1-yl)phenyl)amino)-5,5-difluoro-3-((2-methoxy-2-oxoethyl)thio)-10-phenyl-5H-dipyrrolo[1,2-c:2′,1′-f][1,3,2]diazaborinin-4-ium-5-uide] |  |  |  |  | 579 fold | effectively quenched |  |  | 592 |  |  |  |  |  |  |  |  | acceptable but not excellent
